Reference: PubChem BioAssay (NCI)
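Assay format: 96-well plates, 48-hour exposure. Here, GI50 denotes the concentration required for 50% inhibition of growth. Definition used: TGI = concentration required for complete inhibition of growth.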

Columns and labels:
Assay in all cases: NCI tumour cell line growth inhibition, 48 h
A498 renal = tested on: A498 renal
COLO 205 colon = tested on: COLO 205 colon
MDA-MB-435 = tested on: MDA-MB-435
NCI-H23 lung = tested on: NCI-H23 lung
OVCAR-3 ovarian = tested on: OVCAR-3 ovarian
SK-OV-3 ovarian = tested on: SK-OV-3 ovarian
SNB-19 CNS = tested on: SNB-19 CNS
SNB-75 CNS = tested on: SNB-75 CNS
UO-31 renal = tested on: UO-31 renal
HOP-62 NSCLC = tested on: HOP-62 NSCLC

SMILES	GI50 (A498 renal) [µM]	TGI (A498 renal) [µM]	GI50 (COLO 205 colon) [µM]	TGI (COLO 205 colon) [µM]	GI50 (MDA-MB-435) [µM]	TGI (MDA-MB-435) [µM]	GI50 (NCI-H23 lung) [µM]	TGI (NCI-H23 lung) [µM]	GI50 (OVCAR-3 ovarian) [µM]	TGI (OVCAR-3 ovarian) [µM]	GI50 (SK-OV-3 ovarian) [µM]	TGI (SK-OV-3 ovarian) [µM]	GI50 (SNB-19 CNS) [µM]	TGI (SNB-19 CNS) [µM]	GI50 (SNB-75 CNS) [µM]	TGI (SNB-75 CNS) [µM]	GI50 (UO-31 renal) [µM]	TGI (UO-31 renal) [µM]	GI50 (HOP-62 NSCLC) [µM]	TGI (HOP-62 NSCLC) [µM]
COc1ccc(Nn2c(SCC(=O)Nc3nc(-c4ccc(Cl)cc4)cs3)nc(C)c2C)cc1	2.22	56.5	1.94	3.55	3.22	> 100	1.53	> 100	3.13	24.2	4.24	> 100	6.19	> 100	4.8	> 100	2.62	> 100		
C=C1C[C@](OC)([C@H](O)C(=O)N[C@@H](OC)[C@@H]2C[C@@H](O)C(C)(C)[C@@H](C[C@@H](COC)OC)O2)O[C@H](C)[C@@H]1C	0.00104	0.00288	0.00123	0.00342	0.00162	0.00507	0.00189	0.00544	0.00117	0.00368	0.00194	0.0078	0.00149	0.00645	0.00273	0.00825	0.00267	0.0295	0.00211	0.0102
CCNCC(=O)O[C@]1(CC)C(=O)OCc2c1cc1n(c2=O)Cc2cc3ccccc3nc2-1		4.4		16.5		7.82		0.879		15.9		10.8		> 100		7.91		1.7		0.274
CC(C)CCOc1ccc(-c2n[nH]c(C(F)(F)F)c2-c2cncc(C#N)c2)c(O)c1	1.75	6.64	1.68	3.14	3.6	32.6	1.77	7.59	3.17	16.3	2.2	6.6	2.98	31.5	2.77	14.6	1.98	7.61	2.61	7.65
COc1ccc(-c2ccc(/C=N/n3c(COc4ccccc4Cl)nn(CN4CCN(C)CC4)c3=S)o2)c([N+](=O)[O-])c1			24.4	60.3	18.3	40.9	16.3	31			30.6	83.8	27.1	> 100	20.3	77.3	30.1	> 100	21.7	37
CC(=O)N1CC(Nc2ccc(OC(F)(F)F)cc2)=CC1=O	1.25	24.2	1.21	4.69	0.195	0.439	4.93	> 100	1.19	4.03	3.53	> 100	3.22	> 100	1.59	7.59	19.4	> 100	3.51	> 100
Cc1ccc(C2NC(=S)NC3=C2CCOc2c3ccc3ccccc23)cc1 (configuration not stated)			9.64	> 100	2.78	> 100	> 100	> 100			> 100	> 100	> 100	> 100	> 100	> 100	> 100	> 100	> 100	> 100
CCn1c2c(n(CC)c1=S)-c1c(n(CC)c(=S)n1CC)SSSS2		63.8		19.1		27.5		22.3		17.9		98.9		> 100		26.6		21.5		> 100
NC(CSC(c1ccccc1)(c1ccccc1)c1ccc(Cl)cc1)C(=O)O (configuration not stated)	0.746	48.8	0.256	0.768	0.0344	0.158	0.487	41.9	0.255	3.37	0.158	21.7	0.569	33.2		1.85	6.13	> 83.4	0.714	20.5
CC(=O)c1c(C(F)(F)F)n([O-])c2ccc(Cl)cc2[n+]1=O	1.33	2.88	1.77		2.8	9.94	1.72	6.64	2.64	8.13	6.65	19.9	4.75	> 27.6	1.69	8.38	1.92		0.49	1.86
CC(C)C1OC(=O)C=C1Sc1ccccc1 (configuration not stated)		> 100		> 100		> 100				> 100		> 100		> 100		> 100				> 100
NS(=O)(=O)c1cc2c(cc1Cl)NC(Cc1ccccc1)NS2(=O)=O (configuration not stated)		> 100		> 100		> 100		> 100		> 100		> 100		> 100		> 100		> 100		> 100
O=C1C(Br)=CC2(C=C1Br)CCN=c1c2c(O)c2nc3ccccc3c3ccnc1c23	1.6	6	1.05	3.03	1.18	3.09	1.91	8.41	1.51	8.14	5.03	11	4.59	12.1			0.761	1.55	7.99	15.6
C1CCN(CCC2CCCCN2)CC1 (configuration not stated)		> 100		> 100		> 100		> 100		> 100		> 100		> 100		> 100				> 100
CCN(CC)c1cc(/C=C/c2ccc(OC)c(OC)c2)nc2cc(F)c(F)cc12	1.95	6.2	26.7	> 100	> 100	> 100	4.06	14	5.54	33.3	1.98	4.54	2.34	7.09	1.39	2.89	38.7	> 100	2.08	5.44
